Assay results as given in PubChem BioAssay (NCI).
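Method: 48-hour compound exposure of cells in 96-well plates, five concentrations, linear interpolation of endpoints. TGI marks complete inhibition of growth.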

Experiments:
Assay in all cases: growth of human tumour cells (NCI), 48 h
786-0 renal = system: 786-0 renal
A549 NSCLC = system: A549 NSCLC
ACHN renal = system: ACHN renal
COLO 205 colon = system: COLO 205 colon
DU-145 prostate = system: DU-145 prostate
HL-60(TB) leukemia = system: HL-60(TB) leukemia
HOP-62 NSCLC = system: HOP-62 NSCLC
HT29 colon = system: HT29 colon
IGROV1 ovarian = system: IGROV1 ovarian
K-562 leukemia = system: K-562 leukemia
M14 melanoma = system: M14 melanoma
MDA-MB-231 breast = system: MDA-MB-231 breast
OVCAR-4 ovarian = system: OVCAR-4 ovarian
OVCAR-8 ovarian = system: OVCAR-8 ovarian
PC-3 prostate = system: PC-3 prostate
RPMI-8226 leukemia = system: RPMI-8226 leukemia
SK-MEL-5 melanoma = system: SK-MEL-5 melanoma
SW-620 colon = system: SW-620 colon
UACC-257 melanoma = system: UACC-257 melanoma
HCC-2998 colon = system: HCC-2998 colon

Compound | TGI (786-0 renal) [µM] | TGI (A549 NSCLC) [µM] | TGI (ACHN renal) [µM] | TGI (COLO 205 colon) [µM] | TGI (DU-145 prostate) [µM] | TGI (HL-60(TB) leukemia) [µM] | TGI (HOP-62 NSCLC) [µM] | TGI (HT29 colon) [µM] | TGI (IGROV1 ovarian) [µM] | TGI (K-562 leukemia) [µM] | TGI (M14 melanoma) [µM] | TGI (MDA-MB-231 breast) [µM] | TGI (OVCAR-4 ovarian) [µM] | TGI (OVCAR-8 ovarian) [µM] | TGI (PC-3 prostate) [µM] | TGI (RPMI-8226 leukemia) [µM] | TGI (SK-MEL-5 melanoma) [µM] | TGI (SW-620 colon) [µM] | TGI (UACC-257 melanoma) [µM] | TGI (HCC-2998 colon) [µM]
O=C1NC(N/N=C/C(O)C(O)C(O)C(O)CO)=N/C1=C\c1ccco1 (stereo not drawn) | > 100 | > 100 | > 100 | > 100 | > 100 | > 100 | > 100 | > 100 | > 100 | > 100 | > 100 | > 100 | > 100 | > 100 | > 100 | > 100 | > 100 | > 100 | > 100 | 
COc1ccc(NC(=S)Nc2cc(C)cc(C)n2)cc1 | > 100 | > 100 |  | > 100 | > 100 | > 100 | > 100 | > 100 | > 100 | > 100 | > 100 | > 100 | > 100 | > 100 | > 100 | > 100 | > 100 | > 100 | > 100 | 
O=c1c2cccnc2n2n1Cc1ccccc1C2 | > 100 | > 100 | > 100 |  | > 100 | > 100 | > 100 | > 100 | > 100 | > 100 |  | > 100 | > 100 | > 100 | > 100 | > 100 | > 100 | > 100 | > 100 | > 100
C1=CC2(C=CC13O[C@H](C1CCCCC1)[C@@H](C1CCCCC1)O3)O[C@H](C1CCCCC1)[C@@H](C1CCCCC1)O2 | > 50 | > 50 | > 50 | > 50 | > 50 | > 50 | > 50 | > 50 | > 50 | > 50 | > 50 | > 50 | > 50 | > 50 | > 50 | > 50 | > 50 | > 50 | > 50 | 
COc1cc2c(cc1OC)[C@@H]1[C@H](C#N)C(=O)C(C)(C)N1CC2 | > 100 | > 100 | > 100 | > 100 | > 100 | > 100 |  | > 100 | > 100 | > 100 | > 100 | > 100 | > 100 | > 100 | > 100 | > 100 | > 100 | > 100 | > 100 | > 100
COc1ccc2c(c1)CC[C@@H]1[C@@H]2CC[C@]2(C)C(=O)/C(=C/c3ccc(N(C)C)cc3)C[C@@H]12 | 80.7 | > 100 | > 100 | > 100 | > 100 | > 100 | 44.8 |  |  |  | > 100 | > 100 | > 100 |  | > 100 | > 100 | > 100 | > 100 |  | > 100
CSC1=C(C#N)C(=S)N=C(N)C1C(=O)Nc1ccc(C)cc1 (stereo not drawn) | > 100 | > 100 |  | > 100 | > 100 | > 100 |  | > 100 | > 100 | > 100 | > 100 | > 100 | > 100 | > 100 | > 100 | > 100 | > 100 | > 100 | > 100 | > 100
Cc1ccc(Nc2nc(=O)c3c4ccccc4n(C(=O)OC(C)(C)C)c3s2)cc1 | 38.5 | > 100 | > 100 | > 100 | > 100 | 59 | 64.1 | > 100 | > 100 | > 100 | 44.1 | > 100 | > 100 | > 100 | > 100 | 48.7 | 27 | > 100 | > 100 | 
N#Cc1cccc2c1Sc1ccccc1N2 | 67.2 | > 100 | > 100 | 60.2 | > 100 | > 100 |  | > 100 | > 100 | > 100 | > 100 | > 100 |  | > 100 | > 100 | > 100 | 1.72 | > 100 | > 100 | > 100
S=c1nc2sc3c(c2c(Nc2ccc(Cl)cc2)[nH]1)CCCC3 | > 100 |  | > 100 | > 100 | > 100 | > 100 | > 100 | > 100 | > 100 | > 100 |  | > 100 | > 100 |  | > 100 | 72.4 | > 100 | > 100 | > 100 | > 100
C=CCC1(O)CC(n2cc(C)c(=O)[nH]c2=O)OC1CO[Si](C)(C)C(C)(C)C (stereo not drawn) | > 100 | > 100 | > 100 | 42.7 | > 100 |  | > 100 | > 100 | > 100 | > 100 | > 100 | > 100 | > 100 | > 100 | > 100 | 97.7 | > 100 | > 100 | > 100 | > 100
N#CC(C#N)=C1C(=Cc2ccc(OCCCCCCCCCCSSCCCCCCCCCCOc3ccc(C=C4C(=C(C#N)C#N)c5ccccc5C4=C(C#N)C#N)cc3)cc2)C(=C(C#N)C#N)c2ccccc21 | 41.7 | 31 | > 100 |  | 47.7 | 2.36 | 47.6 | 34.1 | > 100 | 60.4 | 47.9 | > 100 | 52.9 | > 100 | 47.8 | > 100 | 52.3 | 52.1 | > 100 | 28.9
Cc1ccc(S(=O)(=O)NC(=O)NC(CC(N)=O)C(=O)O)cc1 (stereo not drawn) | > 100 | > 100 | > 100 | > 100 | > 100 | > 100 | > 100 | > 100 | > 100 | > 100 | > 100 | > 100 | > 100 | > 100 | > 100 | > 100 | > 100 | > 100 | > 100 | 
C/C=C/C(C#N)(/C=C/c1ccccc1)OP1(=O)OC(c2ccccc2)C(C)N1C (stereo not drawn) | 31.7 | 45.4 | 68.7 | 32.1 | 90.1 | 32.9 | 36.1 | 44.7 | 32.8 | 39.3 | 37.1 | 34.9 |  | 35.5 | 33.3 | 40 | 32.1 | 39.2 | 35.1 | 27.5
Nc1ncc(Br)c(NCC2(CO)CCC2)n1 | > 100 | > 100 | > 100 | > 100 | > 100 | > 100 | > 100 | > 100 | > 100 | > 100 |  | > 100 | > 100 | > 100 | > 100 | > 100 | > 100 | > 100 | > 100 | > 100
CN1Cc2ccccc2S(=O)(=O)n2cccc2C1=O | > 100 | > 100 | > 100 | > 100 | > 100 | > 100 | > 100 |  | > 100 | > 100 |  | > 100 | > 100 |  | > 100 | > 100 | > 100 | > 100 | > 100 | 
Nn1c(CCCCCCCCc2nnc(COc3ccc(Cl)cc3Cl)n2N)nnc1COc1ccc(Cl)cc1Cl | > 100 | > 100 | > 100 | 70 | > 100 |  |  | > 100 | 66 | > 100 | > 100 | > 100 | > 100 |  | > 100 | > 100 | > 100 | > 100 | > 100 | > 100
CN(C)c1ccc(C2CC(c3ccc4ccccc4c3O)=NN2)cc1 (stereo not drawn) | 59.7 | > 100 | > 100 | 51.5 | > 100 |  | > 100 | > 100 | > 100 | 90.2 | > 100 | > 100 | > 100 | > 100 | > 100 | > 100 | > 100 | > 100 | > 100 | > 100
NC(=O)c1ccc(C(=O)Nc2ccc([As](=O)(O)O)cc2)cc1 | > 100 | > 100 | > 100 | > 100 | > 100 | > 100 | > 100 | > 100 | > 100 | > 100 | > 100 | > 100 | > 100 | > 100 | > 100 | > 100 | > 100 | > 100 |  | 
O=C(C1OC1c1ccc(Cl)cc1)C12CC3CC(CC(C3)C1)C2 (stereo not drawn) | 30.7 | 48.5 | 90.1 | 35.7 | > 100 | 42.6 | 56.5 | 41.9 | 67.4 | 51.2 | 38.1 | 54.8 | 40 | 32.9 | 79.9 |  | 28.6 | 44.6 | 54.7 | 35.4
S=C(N1CCN(c2ccc(Cl)c(Cl)c2)CC1)N1CCN(c2ccc(Cl)c(Cl)c2)CC1 | 22.7 | 37.9 | 27.4 | 22.4 | 28.1 |  | 26.5 | 21.3 | 22.5 | 26.7 | 32.3 | 21.2 | 28.3 | 28.3 | 28.2 | 39.4 | 28.4 | 33.8 | 30.9 | 26.6
Cc1c(-c2ccc(O)cc2)n(CCCCCCNCCOC(=O)NCCCc2ccc(N(CCCl)CCCl)cc2)c2ccc(O)cc12 | 2.97 | 3.93 | 14.1 | 7.57 | 3.97 |  | 8.57 | 3.09 | 5.9 |  | 3 | 3.38 | 4.44 | 2.88 | 11.4 | 2.98 | 4.06 | 5.37 | 3.57 | 3.52
Nc1ccccc1-c1noc(=O)[nH]1 | > 100 | > 100 | > 100 | > 100 | > 100 |  | > 100 | > 100 | > 100 | > 100 | > 100 | > 100 | > 100 | > 100 | > 100 | > 100 | > 100 | > 100 | > 100 | > 100
O=C1C=Cc2c(Br)sc(Br)c21 | > 100 | > 100 | 57.7 | > 100 | > 100 | 58.7 | 84.8 | 85.9 | 43.5 | 54.5 | 84.4 | 52.4 |  | > 100 | 49.7 | 46.3 | > 100 | 43.7 | > 100 | 29.2
CC1OC(OC2C(O[C@H]3CC[C@@H]4C(=CC[C@@H]5[C@@]4(C)C(=O)C[C@]4(C)[C@@H]([C@H](C)CC[C@@H](O)C(C)(C)O)CC[C@@]54C)C3(C)C)OC(CO)C(O)C2O)C(O)C(O)C1O (stereo partly drawn) | > 100 | > 100 | > 100 | > 100 | > 100 | > 100 | > 100 | > 100 | > 100 | > 100 | > 100 | > 100 | > 100 | > 100 | > 100 |  | > 100 | > 100 | > 100 | > 100
